Test results: article PMC12094946, “Evidence of focusing the MHC class I immunopeptidome by tapasin” (Frontiers in Immunology, 2025)

Assays:
HLA-B*44:05 = HLA-B*44:05 (Homo sapiens, UniProt P01889, A223V/A65T/A93T/A95T/D201E/D98Y/E176V/E187L/E204Q/E69K/G107R/H137Y/K202T/L105A/L119I/N104T/N87E/Q56L/Q94N/R106L/R155S/R180D/S101N/S121R/S35A/S48T/T118I/V36M/W191S/Y91S); experiment: Immunopeptidome analysis (W6/32 isolation, LC-MS/MS) of 721.220 cells reconstituted with human tapasin; assay type: cell-based; conditions: sheet Overlaps; 1/0 flag; 5% peptide FDR
Protocol: (§1) Approximately 5x10^8 cells were grown for each cell line, and cell pellets were snap frozen. Cell lysis and MHC-I peptide isolation were performed as previously described in detail ([30]). Briefly, cell pellets were lysed by cryomilling and incubation in a non-denaturing lysis buffer (0.5% Igepal CA-630, 50 mM Tris pH 8.0, 150 mM NaCl, 1 x Roche Complete protease inhibitor cocktail). MHC-I complexes were captured from the lysate using 7.5 mg of anti-MHC-I antibody, W6/32, immobilized on protein A Sepharose and subsequently dissociated with 10% acetic acid. The peptides were fractionated and separated from β2m and heavy chain components by reversed-phase high performance liquid chromatography (RP-HPLC). The peptide containing fractions were concentrated and chromatographically distant fractions were combined to generate nine pools, reconstituted in 15 µL 0.1% formic acid containing 500 fmol iRT reference peptides ([31]). Pools were analyzed by liquid chromatography-tandem mass spectrometry (LC-MS/MS) using a SCIEX 5600+ mass spectrometer, equipped with a NanoUltra cHiPLC system (Eksigent) and a Nanospray III ion source. Peptides were trapped on a cHiPLC trap column (3 µm, ChromXP C18CL, 120 Å, 0.5 mm x 200 µm), by loading at 5 µL/min in 0.1% formic acid, 2% acetonitrile, prior to elution over a cHiPLC column (3 µm, ChromXP C18CL, 120 Å, 15 cm x 75 µm) at 300 nL/min with increasing acetonitrile over 75 minutes. The mass spectrometer was operated as follows: ion spray voltage 2400 V, curtain gas 25 l/min, ion source gas 20 l/min, interface heater temperature 150°C, MS1 range 200-1800, MS1 accumulation time 200 ms, MS2 range 60-1800, and MS2 accumulation time 150 ms. The top 20 ions meeting the following criteria were selected for MS/MS fragmentation with rolling collision energy: >200 Da, charge state +2 to +5, >40 cps, dynamic exclusion 30 seconds after two occurrences. Mass spectra were interpreted by database search against the Uniprot/SwissProt ([32]) reviewed human proteome accessed October 2018 using PEAKS Studio XPRO (10.6 build, Bioinformatics Solutions Inc.) and a contaminant database contain the iRT reference peptide sequences using the following parameters: Instrument Triple TOF, fragmentation CID, parent mass error tolerance 25ppm, fragment mass error tolerance 0.1Da, enzyme none, digest mode unspecific, variable modifications Oxidation (M) +15.99 and Deamidation (NQ) +0.98, max variable modifications per peptide 3, False discovery rate (FDR) estimation enabled. A 5% peptide FDR was applied. Peptides identified from similar isolations of MHC class II from closely related 721.221 derived cell lines were excluded from downstream analyses.

HLA-B*44:02 = HLA-B*44:02 (Homo sapiens, UniProt P01889, A223V/A65T/A93T/A95T/D201E/D98Y/E176V/E187L/E204Q/E69K/G107R/H137Y/K202T/L105A/L119I/N104T/N87E/Q56L/Q94N/R106L/R155S/R180D/S101N/S121R/S35A/S48T/T118I/V36M/W191S/Y140D/Y91S); experiment: as above; assay type: cell-based; conditions: sheet Overlaps; 1/0 flag; 5% peptide FDR
Protocol: as §1

HLA-B*44:05-W147A = experiment: as above; assay type: cell-based; conditions: sheet Overlaps; 1/0 flag; 5% peptide FDR
Protocol: as §1

HLA-A*02:01-fos = HLA-A*02:01-fos (Homo sapiens, UniProt P04439, D140Y/D185E/D98H/E176V/E277Q/G131W/G231S/I119V/I121R/I166T/I218V/L300P/L318F/N151K/N90K/P208A/P217A/Q86G/Q94H/R138H/R169H/T345S); experiment: In vitro peptide competition experiments (fluorescence polarization)
Protocol: Peptide competition experiments were prepared in PBS supplemented with 0.5 mg/ml bovine serum albumin (BSA) and a final concentration of 1.67% DMSO. The indicated concentrations of MHC-I molecules were supplemented with 20x excess β2-microglobulin and exposed to 366 nm light for 20 minutes at 4°C. Twenty µl of the UV exposed proteins were added to a 96 well microplate, with each well containing 40 µl of a titration (0 - 83.33 µM) of an unlabeled peptide competitor, 2–3 nM of the appropriate TAMRA labelled peptide, and 300 nM tapasin-jun-ERp57 (HLA-B*44 and HLA-B*35 experiments), or 300 nM TAPBPR (HLA-A*02:01 experiments) or neither tapasin-jun-ERp57 or TAPBPR. Samples were prepared in duplicate and incubated overnight at 25°C.
HLA-B*44:05 and HLA-B*44:05-W147A proteins were used at 160 nM with 2 nM EEFGK*AFSF peptide. HLA-B*35:01-fos and HLA-B*35:03-fos proteins were used at 225 nM with 3 nM YPLK*EQHGM peptide.
Fluorescence polarization measurements were taken using an I3x (Molecular Devices) with rhodamine detection cartridge.

| Substance | B4405 (peptide identified in immunopeptidome) (HLA-B*44:05) | B4402 (peptide identified in immunopeptidome) (HLA-B*44:02) | B4405 W147A (peptide identified in immunopeptidome) (HLA-B*44:05-W147A) | fold lower than unlabeled FLPSDCFPSV (HLA-A*02:01-fos; index peptide IC50 compared with IC50 of unlabeled FLPSDCFPSV) | IC50 value of the index peptide (HLA-A*02:01-fos; suggested by the divergent effects of TAPBPR on the ability of peptides to compete for binding to HLA-A*02:01) |
| --- | --- | --- | --- | --- | --- |
| AEIGEGAYGKVF [peptide identified within the immunopeptidomes] | 1 | 1 | 0 | – | – |
| SELALESQTKTY [peptide identified within the HLA-B*44:02 immunopeptidome] | 0 | 1 | 0 | – | – |
| AEDALHNLDRKW [peptide identified within the immunopeptidomes] | 1 | 1 | 0 | – | – |
| AEMDGAAAAKQVM [peptide identified within the immunopeptidomes] | 1 | 1 | 0 | – | – |
| FLPSDC^TAMRAFPSV | – | – | – | approximately 20 fold | around 3 µM |
| EEVDLSKDIQHW [peptide identified within the immunopeptidomes] | 1 | 1 | 0 | – | – |
